Results taken from the METLIN SMRT retention time set (Domingo-Almenara et al. 2019).

Test: gradient 5% acetonitrile 3 min, to 50% in 2 min, to 85% in 15 min, held 3 min, 100 µL/min
Conditions: column: Zorbax Extend-C18 2.1 x 50 mm; eluents: water / acetonitrile, 0.1% formic acid
Method in brief: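 The mobile phases were water and acetonitrile, each with 0.1% formic acid, pumped at 100 μL/min through a Zorbax Extend-C18 column (2.1 × 50 mm, 1.8 μm). Pure standards were injected as mixtures of ~100 molecules and detected by a quadrupole time-of-flight mass spectrometer in positive and negative ionization mode. Retention time came from computationally picked adduct peaks, each inspected by hand.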

Work on `O=C(CCCCCCC(=O)Nc1ccccc1)NO` yielded an RP-LC retention time of 660 s.

In the case of `O=C(O)c1cnc(N2CCOCC2)nc1-c1cccnc1`, the RP-LC retention time is reported as 569 s.

`O=C(CCn1nnc2cc(-c3noc(Cc4ccccc4Br)n3)ccc21)N1CCOCC1` gave an RP-LC retention time of 860 s.

`COc1ccccc1-c1nc(Cn2nnc(-c3nc(-c4ccc(C)c(C)c4)no3)c2C)c(C)o1` gave an RP-LC retention time of 1240 s.

Work on `CCn1c(=O)c2ccccc2n(Cc2nc(-c3ccccc3OC)no2)c1=O` yielded an RP-LC retention time of 909 s.

`Cc1cccc(CC(=O)NCCCN2CCN(c3ccccc3)CC2)c1` showed an RP-LC retention time of 601 s.

Compound `COc1ccc(NC(=O)NCC2(CO)CC2)cc1OC` has an RP-LC retention time of 581 s.

With `Cn1nccc1C(=O)N1CCc2c([nH]c3ccccc23)C1c1ccc(Cl)cc1` (stereo not drawn) the RP-LC retention time was 1080 s.

`Clc1cccc(-n2cc(-c3noc(-c4ccc5c(c4)OCO5)n3)nn2)c1` showed an RP-LC retention time of 1100 s.

For `CCN1CCC[C@H]1CNC(=O)c1c(O)c(Cl)cc(Cl)c1OC`, the RP-LC retention time was 777 s.

Compound `Cc1cc2c(cc1S(=O)(=O)N1CCCC1C(=O)NCc1ccc(F)cc1)OCC(=O)N2` (stereo not drawn) has an RP-LC retention time of 712 s.

With `CCc1nc(-c2nnn(-c3ccc(C)cc3)c2C)no1` the RP-LC retention time was 945 s.

For `Cc1ccn2c(Nc3ccc4c(c3)OCCO4)c(-c3cccc(Cl)c3)nc2c1`, the RP-LC retention time was 727 s.

`Cc1ccc(CC(=O)NC2CCN(c3nnc4ccc(C(F)(F)F)cn34)CC2)cc1` showed an RP-LC retention time of 815 s.

For `COc1cccc(S(=O)(=O)N2CCC3(CC2)C(OC)C(=O)N3c2cccc(F)c2)c1` (stereo not drawn), the RP-LC retention time was 1040 s.

Compound `CCn1ccc2cc(S(=O)(=O)N3CCCC(C(=O)NC4CCCCCC4)C3)ccc21` (stereo not drawn) has an RP-LC retention time of 1080 s.

Compound `Cc1cccc(-c2noc(C3CCCN3C(=O)NC(C)C)n2)c1` (stereo not drawn) has an RP-LC retention time of 897 s.

`CCCCC(C)C(=O)NC1CCN(C2=NS(=O)(=O)C(c3ccc(C)cc3)=C2C)CC1` (stereo not drawn) gave an RP-LC retention time of 935 s.

In the case of `COc1ccc(N2CC(c3nc(-c4ccccc4F)no3)CC2=O)cc1` (stereo not drawn), the RP-LC retention time is reported as 865 s.

For `O=C(CN1C(=O)CC(c2ccccc2)S(=O)(=O)c2ccccc21)Nc1ccc(F)cc1F` (stereo not drawn), the RP-LC retention time was 906 s.

For `O=C(NC1CCCCCC1)C1CCN(C(=O)c2ncn3c2COC(c2ccc(F)cc2)C3)CC1` (stereo not drawn), the RP-LC retention time was 846 s.

`O=C(c1cccc(Cl)c1)N1CCN(S(=O)(=O)c2cc3c4c(c2)CCC(=O)N4CCC3)CC1` gave an RP-LC retention time of 843 s.

Work on `CC(=O)Nc1ccc(S(=O)(=O)NCC2(c3cccs3)CCOCC2)c(C)c1` yielded an RP-LC retention time of 696 s.

Work on `CN1CC[C@]2(c3cccc(O)c3)Cc3nc4ccccc4cc3C[C@H]2C1` yielded an RP-LC retention time of 572 s.

With `CCN1C(=O)c2cccnc2Sc2cc(NC(=O)COc3ccc(Cl)cc3)ccc21` the RP-LC retention time was 927 s.

With `CCc1nnc2nc(N3CCN(C(=O)COc4ccc(OC)cc4)CC3)cc(C)n12` the RP-LC retention time was 613 s.

`Cc1ccc(NC(=O)C(=O)NCCCN2CCOCC2)cc1F` gave an RP-LC retention time of 573 s.

For `CCC(C)(C)C(=O)O[C@H]1C[C@@H](C)C=C2C=C[C@H](C)[C@H](CC[C@@H](O)C[C@@H](O)CC(=O)O)[C@H]21`, the RP-LC retention time was 1020 s.

`Cc1cc(=O)n(CC(=O)N2CCN(c3ccc(F)cc3)CC2)c(-c2ccc(F)cc2)n1` gave an RP-LC retention time of 1010 s.

Work on `CCOc1ccc(C(=O)Nc2ccc(Nc3ccc(-n4cccn4)nn3)cc2)cc1OCC` yielded an RP-LC retention time of 782 s.

Work on `CC(C)n1c(=O)sc2cc(S(=O)(=O)N3CCC(C(=O)NCC4CCCO4)CC3)ccc21` (stereo not drawn) yielded an RP-LC retention time of 762 s.

`COc1ccccc1N1CCN(CC2CN3C(=O)N(C)c4ccccc4C3=N2)CC1` (stereo not drawn) gave an RP-LC retention time of 662 s.

`O=C(c1cc(Cl)ccc1Cl)N1CCN(c2cc(-c3cccs3)[nH]n2)CC1` showed an RP-LC retention time of 870 s.

Compound `COc1ccc(CCNC(=O)C2CCCN(c3ccc(-c4ccco4)nn3)C2)cc1OC` (stereo not drawn) has an RP-LC retention time of 618 s.

Work on `Cc1ccccc1Cn1cccc1CNC(=O)Nc1ccc2c(c1)OCO2` yielded an RP-LC retention time of 931 s.

Compound `Cc1ccc(Cc2nc(-c3ccc4c(c3)nnn4CCN3CCOCC3)no2)cc1` has an RP-LC retention time of 703 s.

`COCCc1nnc(NC(=O)COc2ccc(Cl)cc2)o1` showed an RP-LC retention time of 655 s.

With `CCN(CC)C(=O)Cn1ccn2nc(-c3ccccc3)c(CO)c2c1=O` the RP-LC retention time was 721 s.

In the case of `Cc1nc(-c2cccs2)c(CC(=O)N2CCN(c3ccccn3)CC2)s1`, the RP-LC retention time is reported as 607 s.

Work on `CC(C)n1cnc(S(=O)(=O)N2CCCC(C(=O)Nc3cccc(CN4CCCC4)c3)C2)c1` (stereo not drawn) yielded an RP-LC retention time of 627 s.

Work on `COc1ccc2ncc(S(=O)(=O)c3ccccc3)c(Nc3ccc4c(c3)OCCO4)c2c1` yielded an RP-LC retention time of 855 s.

`Cc1cccc(N2CC(C(=O)NC3CCCC3)CC2=O)c1` (stereo not drawn) showed an RP-LC retention time of 767 s.

In the case of `Cc1ccc2ncn(C3CCN(C(=O)Nc4ccc(F)cc4)CC3)c(=O)c2c1`, the RP-LC retention time is reported as 765 s.

For `Cc1nn(CC(=O)NCCCN2CCCCC2)c(=O)c2nc(-c3ccccc3)sc12`, the RP-LC retention time was 627 s.

Compound `CCNc1cc(N2CCCC(CCC(=O)N(C)CCc3ccccn3)C2)ncn1` (stereo not drawn) has an RP-LC retention time of 556 s.

For `Cc1nc(Nc2ccc(Br)cn2)sc1C(=O)N1CCC(C(N)=O)CC1`, the RP-LC retention time was 642 s.

With `CC(C)n1cnc2cc(CNC(=O)c3cc(F)ccc3F)ccc21` the RP-LC retention time was 610 s.

With `O=C(c1ccc(-c2ccc3c(c2)CCN3S(=O)(=O)c2cccc(F)c2)cc1)N1CCOCC1` the RP-LC retention time was 937 s.

`COc1ccc(-c2cn3c(CC(=O)N(Cc4cccs4)C4CCCC4)csc3n2)cc1OC` gave an RP-LC retention time of 875 s.

`CCN1C(=O)c2cc(C(=O)Nc3ccc(Cl)cc3)nn2CC1(C)C(=O)NC1CCCC1` (stereo not drawn) showed an RP-LC retention time of 860 s.

`Cc1ccc(Nc2ccc(NC(=O)C3CCCC3)cc2)nn1` showed an RP-LC retention time of 566 s.

For `CCc1ccc(CN(CC(=O)N2CCNCC2)C(=O)c2sccc2C)cc1`, the RP-LC retention time was 671 s.

Compound `O=C1NCCCCCCN(C(=O)Nc2ccccc2)[C@H]2CCCC[C@@H]12` has an RP-LC retention time of 805 s.

In the case of `CC1=C(c2ccc(C(C)C)cc2)S(=O)(=O)N=C1N1CCCN(C(=O)c2ccoc2)CC1`, the RP-LC retention time is reported as 911 s.

Work on `CC(C)Cn1cc(S(=O)(=O)Nc2cc(F)ccc2Cl)c2cccnc21` yielded an RP-LC retention time of 1020 s.

`O=C(NCc1ccc(Cl)cc1)C1CCCN(S(=O)(=O)c2c[nH]c(C(=O)N3CCCC3)c2)C1` (stereo not drawn) gave an RP-LC retention time of 800 s.

For `CCOc1nc2ccccc2nc1N1CCCC(C(=O)N2CCSCC2)C1` (stereo not drawn), the RP-LC retention time was 1150 s.

In the case of `Cc1ccc(Nc2nc(C)cc(N3CCN(S(=O)(=O)c4ccc(F)c(F)c4)CC3)n2)cc1`, the RP-LC retention time is reported as 808 s.

In the case of `CC(C)C(=O)n1nc(-c2ccccc2Cl)nc1N`, the RP-LC retention time is reported as 898 s.

In the case of `CCOc1cc(C(=O)Nc2cc(-c3cn4cccnc4n3)ccc2C)cc(OCC)c1OCC`, the RP-LC retention time is reported as 780 s.

`CCCCN(C)c1nc(-c2ccc(Cl)cc2Cl)nc2ccccc12` showed an RP-LC retention time of 893 s.

With `Cc1cc(N2CCN(C(=O)Nc3ccc(C)c(C)c3)CC2)nc(N2CCOCC2)n1` the RP-LC retention time was 666 s.

In the case of `Cc1ccc([N+](=O)[O-])cc1S(=O)(=O)N1CCN(c2cccc(Cl)c2)CC1`, the RP-LC retention time is reported as 618 s.

With `CC(c1ccccc1)c1nc(-c2ccc3c(c2)nnn3CCN2CCOCC2)no1` (stereo not drawn) the RP-LC retention time was 714 s.

For `CCN(c1cccc(C)c1)S(=O)(=O)c1cc(-c2[nH]ncc2C(=O)N2CCCC2)oc1C`, the RP-LC retention time was 819 s.

Work on `C[C@H]1CN(C(=O)NCc2ccccc2)C[C@@H]1c1nc(-c2cccnc2)no1` yielded an RP-LC retention time of 730 s.

`CCc1cc(C(=O)NCc2ccc(C)o2)nc2cc(-c3ccco3)nn12` gave an RP-LC retention time of 767 s.

Work on `O=C(NCCN1CCN(C(=O)NC(c2ccccc2)c2ccccc2)CC1)c1ccsc1` yielded an RP-LC retention time of 605 s.

Compound `CCCCNc1nc2c(c(=O)n(C)c(=O)n2C)n1CC(O)COc1ccccc1` (stereo not drawn) has an RP-LC retention time of 882 s.

With `CC(C)Oc1cc(O)c2c(=O)cc(-c3ccccc3)oc2c1` the RP-LC retention time was 1260 s.

In the case of `O=C1CN(C(=O)Cc2ccccc2Cl)C2(CCCC2)CN1`, the RP-LC retention time is reported as 727 s.

Compound `COc1ccccc1CC1C(=O)Nc2ccc(Br)cc21` (stereo not drawn) has an RP-LC retention time of 976 s.

For `CN1CCN(CCNC(=O)c2ccc(NC(=O)C3=CSCCO3)cc2)CC1`, the RP-LC retention time was 754 s.

For `CSc1ccc(CNC(=O)C2CCN(c3cnc4nccnc4c3)CC2)cc1`, the RP-LC retention time was 702 s.

`CCC(=O)N1CCc2cc(N3CC(C(=O)NCc4ccccc4F)CC3=O)ccc21` (stereo not drawn) showed an RP-LC retention time of 722 s.

For `CCc1nc2cc(-c3noc(-c4ccccc4OC)n3)ccc2o1`, the RP-LC retention time was 1080 s.

Work on `Cc1ccc(CNC(=O)C2(C)CCCN(C(=O)Nc3cc(Cl)ccc3C)C2)cc1` (stereo not drawn) yielded an RP-LC retention time of 1080 s.

`COc1cc(-c2nc3ncccn3c2NCc2ccc(Cl)cc2)ccc1OC(C)C` gave an RP-LC retention time of 808 s.

`COc1ccc(-c2nc3cnccn3c2Nc2cccc(C)c2C)cc1OC` showed an RP-LC retention time of 838 s.

With `NC(=O)c1oc2ccccc2c1NC(=O)C1CCCCN1S(=O)(=O)c1cccs1` (stereo not drawn) the RP-LC retention time was 825 s.

Compound `O=C(NCCN1CCCC1)C1CCN(c2nc(-c3ccc(Cl)cc3)no2)CC1` has an RP-LC retention time of 603 s.

For `Cc1nn(C)c2c(=O)n(C(C)C(=O)NCc3ccc4c(c3)OCO4)ccc12` (stereo not drawn), the RP-LC retention time was 715 s.

In the case of `CC(=O)N1CCc2cc(N3CC(C(=O)N4CCN(C5CCCCC5)CC4)CC3=O)ccc21` (stereo not drawn), the RP-LC retention time is reported as 578 s.

Compound `Cc1ccc(-c2nnc(-c3ccccc3)o2)cc1S(=O)(=O)N(C)C` has an RP-LC retention time of 950 s.

For `Cc1ccnc(Nc2nc(-c3cc(C)c(C)cc3C)cs2)c1`, the RP-LC retention time was 953 s.

`Cc1c2c(nn1-c1ccc(SCC(=O)NC(C)C)nn1)CCC2` gave an RP-LC retention time of 841 s.

`Cc1ccc(NC(=O)C2CC(=O)N(c3cccc(NC(=O)C4CCC4)c3)C2)cc1Cl` (stereo not drawn) gave an RP-LC retention time of 914 s.

`CC(CC(=O)N1CCN(Cc2ccccc2)CC1)S(=O)(=O)c1ccc2c(c1)CCN2C(=O)C1CC1` (stereo not drawn) gave an RP-LC retention time of 656 s.
